Measured values taken from US8841285B2, “Potent immunosuppressive agents, derivatives and uses” (priority 2002, dated 2014).
Read-outs that look alike come from different tables or passages of the source.

Tests used:
[1] = tested on: cap-dependent translation; assay: in vitro translation in RRL, bicistronic reporter, cap-dependent cistron; type: biochemical, rabbit
Procedure: (§1) In vitro Translation and Transcription. pSP/(CAG)33/FF/HCV/Ren·pA51 and pKS/FF/EMC/Ren were linearized by BamHI, then purified by phenol:chloroform extraction and ethanol precipitation, and dissolved in water. pSP/(CAG)33/FF/HCV/Ren·A51 and pKS/FF/EMC/Ren were individually transcribed using a large scale RNA production system in the presence of m7Gppp cap analog followed by incubation with DNase as described by the manufacturer. Resulting RNA was purified using a kit as described by the manufacturer. Translation was performed using a rabbit reticulocyte lysate system as per instructions. Briefly, 200 ng of purified RNA was combined in a 20 μl reaction containing 10 μl RRL, 0.2 μl each of minus Met and minus Leu amino acid mixtures, 70 mM KCl, 2 mM DTT, 1× translation buffer, and 10 units of RNasin. Compounds or DMSO were added to a final DMSO concentration of 2%. Reactions were incubated at 30° C. for 1.5 h, then 5 μl of the reaction mixture was assayed for luciferase activity as per instructions of luciferas reporter assay system.

293T cells = assay: cellular polyribosome profiles; type: cell-based; settings: 30 min treatment
Procedure: Cellular polyribosome profiles. 293T cells were treated as indicated for 30 min. Cells were washed twice with ice-cold PBS and pipetted for 5 min in 500 μl of chilled TMK100 buffer (20 mM Tris-HCl pH 7.4, 5 mM MgCl2 100 mM KCl, 2 mM DTT, 1% Triton X-100 and 100 U/ml RNAsin in DEPC water). After clearing at 10,000×g (10 min) at 4° C., the supernatant (S10) was layered onto 11 ml, 15-45% linear sucrose gradient containing 20 mM HEPES pH 7.4, 100 mM KCl, 5 mM MgCl2 and 2 mM DTT. Ultracentrifugation at 40,000 rpm for 1.5 h at 4° C. was performed in a suitable rotor. Fractions were collected from the top of the gradient by injection of Flurinert FC-40 from bottom of centrifuge tube. Gradient profiles were monitored at 254 nm. For immunoblotting, 7 mg of total protein were processed as described above, followed by collection of 500 μl fractions were collected from the top. 100 μl aliquots of each were boiled in SDS sample buffer, followed by SDS-PAGE and immunoblotting.

[2] = tested on: mixed lymphocyte reaction; settings: read-out: IC50 in MLR (mixed lymphocyte reaction) assay; cited from earlier work
[3] = tested on: EMCV IRES mediated initiation; assay: in vitro translation in RRL, EMCV IRES cistron; type: biochemical, rabbit; settings: EMCV IRES bicistronic reporter
Procedure: as §1

MCF-7 cells = assay: cell proliferation assay, MCF-7 cells; type: cell-based; settings: MCF-7 cells (FIG. 13)
Procedure: (§2) Cell Proliferation Assay. 1×10^5 of indicated cells in each well of a 96-well plate were treated with indicated compounds for 24 h followed by addition of 0.11 μCi of [^3H]-thymidine (6.7 Ci/mmol) per well for 6 h, followed by harvesting to GF/C filtermats using a cell harvester. Filtermats were air-dried and scintillation counted. IC50s were determined from quadruplicate data readings and curve-fitting analysis.

HeLa cells [4] = assay: cell proliferation assay, HeLa cells; type: cell-based
Procedure: Cell Culture and transient overexpression. HeLa, RKO, and 293T cells were cultured in DMEM (10% FBS), and Hela S3 and MCF-7 cells in RPMI1640 (10% FBS) in a water jacket cell culture incubator with 5% CO2. Transient transfection was performed using kit as described by the manufacturer. Ectopic overexpression of indicated proteins was performed using pSG5-myc-STRAP, pSG5-eIF4AI, and pcDNA-Flag-4B(wt)
as §2

[5] = tested on: HCV IRES-mediated translation; assay: in vitro translation in RRL, HCV IRES cistron; type: biochemical, rabbit; settings: 100 nM
Procedure: as §1

HeLa cells [6] = type: cell-based
eIF4AI [7] = target: T1, eIF4AI (Homo sapiens, UniProt P60842); assay: ATP-dependent RNA helicase activity of 6XHis-eIF4AI; type: biochemical
T1 construct: The entire ORF of human eIF4AI was ligated in-frame into the BamHI and HindIII sites of the pET-28a expression vector; 6XHis (N); made in house; host or cells: E. coli BL21(DE3)
T1 sequence (P60842 whole entry): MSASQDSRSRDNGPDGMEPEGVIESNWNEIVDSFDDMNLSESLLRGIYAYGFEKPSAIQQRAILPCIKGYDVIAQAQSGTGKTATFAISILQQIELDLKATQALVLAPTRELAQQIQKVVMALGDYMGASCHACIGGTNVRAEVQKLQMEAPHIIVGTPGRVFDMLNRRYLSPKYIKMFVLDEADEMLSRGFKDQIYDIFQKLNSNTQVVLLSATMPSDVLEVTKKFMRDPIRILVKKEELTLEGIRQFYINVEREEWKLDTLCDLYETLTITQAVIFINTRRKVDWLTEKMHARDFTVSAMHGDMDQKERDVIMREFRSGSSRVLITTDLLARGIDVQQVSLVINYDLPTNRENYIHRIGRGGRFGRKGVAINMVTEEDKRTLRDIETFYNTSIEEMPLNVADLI
Procedure: (§3) Recombinant proteins. The entire ORF of human eIF4AI was ligated in-frame into the BamHI and HindIII sites of the pET-28a expression vector after PCR amplification from HeLa cells. Protein was produced in BL21(DE3) E. coli cultured in LB medium by induction with 1 mM IPTG for 6 h at 37° C. Cells were lysed by sonication and protein was purified using Ni-NTA resin as described by the manufacturer. For pET(His6-eIF4B), induction conditions were for 72 h at 16° C. Purification included a 1 ml Heparin column with a linear KCl gradient (50-500 mM).
(§4) ATPase and Helicase. ATPase activity was performed as described (Korneeva et al., 2005) with minor modifications. Reactions contained 2.5% DMSO, 6XHis-eIF4AI concentration was 0.56 μM, and reaction time was 10 min at 37° C. in buffer: 20 mM Tris-HCl, pH 7.5, 0.5 mM MgCl2, 100 mM KCl, 2 mM DTT, 0.1% (v/v) Tween 20, 10% (v/v) glycerol, 1 mg/ml BSA, and reactions were supplemented with 3-5 μCi of [γ-^32P]-ATP (6000 Ci/mmol). Saturating poly(U) concentrations were 1239 μM (nucleotides/20). Released phosphate was visualized on 15% native TBE polyacrylamide gels followed by autoradiography of wet gels (30 min exposure). Film was aligned with gels and spots were excised and ^32P levels were quantified by scintillation counting. Km and Vmax were determined by curve fitting. […]

eIF4AI [8] = target: T1, eIF4AI; assay: RNA-dependent ATPase activity of recombinant 6XHis-eIF4AI; type: biochemical; settings: saturating poly(U) RNA
Procedure: as §3, §4

Compound | inhibition of cap-dependent translation ([1]; 100 nM, HCV IRES bicistronic reporter) | IC50 ([1]; EMCV IRES bicistronic reporter, read-out: IC50, cap-dependent initiation) [nM] | IC50 ([1]; HCV IRES bicistronic reporter, read-out: IC50, cap-dependent translation) [nM] | effect on polysome profile (293T cells) | IC50 [2] [nM] | IC50 [3] [nM] | reversibility of antiproliferative effect (MCF-7 cells) | reversibility of antiproliferative effect (HeLa cells [4]; HeLa cells (FIG. 13)) | sensitivity on overexpression of STRAP (HeLa cells [4]; HeLa cells overexpressing STRAP) | increase in IC50 on overexpression of eIF4AI (HeLa cells [4]; HeLa cells overexpressing eIF4AI vs empty vector) [fold] | inhibition of HCV IRES-mediated (eIF4A-independent) translation [5] | stress granule formation (HeLa cells [6]) | effect on helicase activity of eIF4A and 4B (eIF4AI [7]; in the presence of 6XHis-4B) | effect on ATP-dependent RNA helicase activity of eIF4AI (eIF4AI [7]; with ATP) | effect on Km ATP (eIF4AI [8]) | effect on kcat (eIF4AI [8])
CC(/C=C/C(C)=C/[C@@H]1Cc2nc(cs2)[C@@H](C)C[C@@H](N)CC(=O)O[C@@H](C)C/C(C)=C/C=C\C(=O)O1)=C\CN(C)C [Pat A (1), Pateamine A] | nearly completely inhibited | ~88 | ~20 | depletion of polysomes | 2.6 | ~54 | irreversible | irreversible | did not alter sensitivity | 5 | not inhibited | capable of inducing stress granule formation |  |  |  | 
CC(/C=C/C(C)=C/[C@@H]1Cc2nc(cs2)CCCCC(=O)O[C@@H](C)C/C(C)=C/C=C\C(=O)O1)=C\CN(C)C [compound 3, desmethyl, desamino-pateamine A] |  |  |  |  |  |  |  |  |  |  |  |  | further stimulated | dramatically increased | significant decrease | marginally increased
